Assay results: patent US7999069B2, “EphB receptor-binding peptides” (Sanford-Burnham Medical Research Institute, priority 2005, dated 2011)
No end group written: not given here.

Assays:
EphB1 [1] = molecular target: T1, EphB1 (Homo sapiens, UniProt P54762); experiment: Inhibition of ephrin-B2 AP binding to immobilized EphB1 ectodomain
T1 construct: panned on the ectodomains of EphB1, EphB2, or EphB4 fused to human Fc
T1 sequence (P54762 18-540 limits assumed): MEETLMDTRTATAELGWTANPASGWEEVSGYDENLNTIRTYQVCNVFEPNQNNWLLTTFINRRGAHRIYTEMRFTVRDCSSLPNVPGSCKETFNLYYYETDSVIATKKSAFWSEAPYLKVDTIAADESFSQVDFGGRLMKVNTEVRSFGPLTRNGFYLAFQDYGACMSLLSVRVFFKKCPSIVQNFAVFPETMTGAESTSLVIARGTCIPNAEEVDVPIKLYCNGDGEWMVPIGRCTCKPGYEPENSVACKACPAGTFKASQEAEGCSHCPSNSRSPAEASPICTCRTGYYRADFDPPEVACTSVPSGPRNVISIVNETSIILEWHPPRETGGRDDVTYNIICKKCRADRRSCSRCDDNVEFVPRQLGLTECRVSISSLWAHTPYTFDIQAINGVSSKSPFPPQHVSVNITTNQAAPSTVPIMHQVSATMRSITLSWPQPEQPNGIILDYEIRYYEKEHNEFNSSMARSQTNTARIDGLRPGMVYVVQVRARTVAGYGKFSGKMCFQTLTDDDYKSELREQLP
Procedure: Peptides that bind to the same receptor region as the ephrins would be expected to inhibit Eph receptor-ephrin association, if they interact with sufficient affinity. A number of synthetic peptides were tested for their ability to inhibit binding of alkaline phosphatase-tagged ephrin-B2 (ephrin-B2-AP) to EphB receptors (FIG. 3). Most of the peptides were synthesized with a biotin tag and immobilized on streptavidin plates to verify their ability to capture the EphB ectodomains used for their isolation.
Ephrin-B2 AP binding to the indicated immobilized EphB receptor ectodomains was measured in the presence of the indicated peptides and detected by measuring alkaline phosphatase activity. […]. […] Wells coated with the different EphB ectodomains were incubated with ephrin-B2 AP and 50 μM of the indicated peptides. Ephrin-B2 AP binding in the presence of peptide was normalized to binding in the absence of peptide. All peptides were biotinylated except for FSPQ and EWYM. […] Therefore, IPWT was not used for further experiments. […]
The GP motif aligns with the GP motif of TNYL and the RAW motif aligns precisely next to the last amino acid of TNYL. […] After several washes, the amount of ephrin-B2-AP bound was quantified using p-nitrophenylphosphate as a substrate. […]

EphB1 [2] = molecular target: T1, EphB1; experiment: Peptide competition of phage binding to EphB1 ectodomain
Procedure: To measure peptide competition of phage binding to EphB receptors, Ni-NTA wells coated with Eph ectodomain Fc were incubated for 30 min at room temperature with various peptide concentrations in binding buffer (100 μl/well). Concentrated stocks of phage clones diluted between 1:500 and 1:10,000 in binding buffer were then added to the wells for a 1 hr at room temperature. Wells were washed and bound phage were detected using the anti-M13 antibody. A biotinylated control peptide with sequence unrelated to the sequences of the Eph-binding peptides ([…], SEQ ID NO: 40) was used as a negative control in some of the experiments, as indicated in the figure legends.
[…]. The SNEW peptide at 25 μM inhibited EphB2 binding of most phage clones isolated by panning on EphB2 (FIGS. 2E and G). The only exceptions were the IHWP, DHRWV and WHWT clones. However, binding of these clones was inhibited by 50 μM SNEW peptide, particularly when the phage concentration was halved. […] Bound phage were detected using anti-M13 phage antibody coupled to HRP and phage binding in the presence of peptide was normalized to phage binding in the absence of peptide. Error bars indicate standard deviation from duplicate measurements, and were calculated taking into account propagation of errors.

EWLSPNLAPSVR [SEQ ID NO 1]
Inhibition of ephrin-B2 AP binding to EphB1 (in words) (EphB1 [1]): inhibited ephrin binding to EphB1
Inhibition of EphB1 binding of phage clones isolated by panning on EphB1 (EphB1 [2]; 5 μM peptide): inhibited EphB1 binding of the phage clones isolated by panning on EphB1
Inhibition of binding of the corresponding phage clone to EphB1 (EphB1 [2]; concentration-dependent): efficiently inhibited binding
